Assay results from ChEMBL document CHEMBL3351582, “A simple, general approach of allosteric coagulation enzyme inhibition through monosulfated hydrophobic scaffolds” (Bioorg Med Chem Lett, 2014).
Calls of active or inactive are those of the source. The calls are words filed in the database; no cut-off is given here.

Assays:
[1] = biological target: Coagulation factor IX (Homo sapiens) (UniProt P00740); assay: Inhibition of human factor 9a assessed as residual activity at 500 uM by spectrophotometric assay
Chain of Coagulation factor IX (Homo sapiens) (P00740 47-191 limits assumed): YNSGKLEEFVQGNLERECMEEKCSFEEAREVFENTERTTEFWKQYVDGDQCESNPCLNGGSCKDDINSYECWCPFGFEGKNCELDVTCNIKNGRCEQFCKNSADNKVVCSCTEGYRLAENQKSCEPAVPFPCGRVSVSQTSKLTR
Chain of Coagulation factor IX (Homo sapiens) (P00740 227-461 limits assumed): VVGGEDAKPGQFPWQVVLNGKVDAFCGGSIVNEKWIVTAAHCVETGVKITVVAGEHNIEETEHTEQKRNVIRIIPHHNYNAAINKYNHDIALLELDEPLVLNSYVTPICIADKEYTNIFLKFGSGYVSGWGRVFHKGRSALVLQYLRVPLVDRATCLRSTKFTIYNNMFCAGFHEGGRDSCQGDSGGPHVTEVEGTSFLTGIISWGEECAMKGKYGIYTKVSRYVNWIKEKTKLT

[2] = biological target: T1, Coagulation factor XII (Homo sapiens) (UniProt P00748); assay: Inhibition of human factor 12a assessed as residual activity at 500 uM by spectrophotometric assay
T1 sequence (whole entry): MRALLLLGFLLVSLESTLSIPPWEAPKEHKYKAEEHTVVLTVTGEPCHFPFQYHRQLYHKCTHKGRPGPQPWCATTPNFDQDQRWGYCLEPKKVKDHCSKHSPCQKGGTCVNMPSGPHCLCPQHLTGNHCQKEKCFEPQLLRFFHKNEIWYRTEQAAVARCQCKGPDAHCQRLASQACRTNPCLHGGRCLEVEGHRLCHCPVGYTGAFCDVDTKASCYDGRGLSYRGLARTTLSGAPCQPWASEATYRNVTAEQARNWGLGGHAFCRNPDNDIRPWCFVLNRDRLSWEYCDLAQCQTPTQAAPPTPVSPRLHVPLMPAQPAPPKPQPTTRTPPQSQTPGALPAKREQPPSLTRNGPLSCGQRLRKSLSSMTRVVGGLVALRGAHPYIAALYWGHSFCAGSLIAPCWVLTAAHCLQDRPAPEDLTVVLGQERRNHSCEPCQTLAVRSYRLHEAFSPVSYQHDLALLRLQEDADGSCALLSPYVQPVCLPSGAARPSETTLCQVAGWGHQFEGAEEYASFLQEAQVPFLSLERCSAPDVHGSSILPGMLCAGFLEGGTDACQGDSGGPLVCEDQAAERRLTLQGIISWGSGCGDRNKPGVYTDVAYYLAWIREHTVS

[3] = biological target: T2, Coagulation factor VII (Homo sapiens) (UniProt P08709); assay: Inhibition of human factor 7a assessed as residual activity at 500 uM by spectrophotometric assay
T2 sequence (whole entry): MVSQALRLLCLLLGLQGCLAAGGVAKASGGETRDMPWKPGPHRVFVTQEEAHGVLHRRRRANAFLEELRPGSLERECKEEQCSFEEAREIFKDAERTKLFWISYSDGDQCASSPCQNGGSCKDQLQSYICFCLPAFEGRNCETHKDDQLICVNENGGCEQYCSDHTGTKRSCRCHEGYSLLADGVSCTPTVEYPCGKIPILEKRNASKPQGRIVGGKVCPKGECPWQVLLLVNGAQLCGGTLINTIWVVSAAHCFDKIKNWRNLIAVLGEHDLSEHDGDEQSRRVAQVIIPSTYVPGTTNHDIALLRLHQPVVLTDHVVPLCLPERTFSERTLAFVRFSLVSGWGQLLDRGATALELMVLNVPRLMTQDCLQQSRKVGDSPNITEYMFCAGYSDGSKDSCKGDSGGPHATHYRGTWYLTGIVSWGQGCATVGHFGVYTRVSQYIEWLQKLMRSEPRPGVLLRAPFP

[4] = biological target: Prothrombin (Homo sapiens) (UniProt P00734); assay: Inhibition of human thrombin using spectrozyme TH as substrate assessed as residual activity at 500 uM by spectrophotometric assay
[5] = biological target: Coagulation factor XI (Homo sapiens) (UniProt P03951); assay: Inhibition of human factor 11a assessed as residual activity at 500 uM by spectrophotometric assay
Chain of Coagulation factor XI (Homo sapiens) (P03951 19-387 limits assumed): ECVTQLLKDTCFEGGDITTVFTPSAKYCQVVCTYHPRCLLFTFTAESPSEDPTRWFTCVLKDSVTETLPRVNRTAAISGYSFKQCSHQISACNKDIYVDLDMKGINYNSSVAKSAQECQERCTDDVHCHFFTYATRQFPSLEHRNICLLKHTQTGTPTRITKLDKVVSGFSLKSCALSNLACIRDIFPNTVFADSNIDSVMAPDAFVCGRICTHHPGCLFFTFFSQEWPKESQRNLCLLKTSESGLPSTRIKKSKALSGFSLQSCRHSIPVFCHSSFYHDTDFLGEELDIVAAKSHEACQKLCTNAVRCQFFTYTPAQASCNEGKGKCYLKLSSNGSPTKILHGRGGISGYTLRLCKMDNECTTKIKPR
Chain of Coagulation factor XI (Homo sapiens) (P03951 388-625 limits assumed): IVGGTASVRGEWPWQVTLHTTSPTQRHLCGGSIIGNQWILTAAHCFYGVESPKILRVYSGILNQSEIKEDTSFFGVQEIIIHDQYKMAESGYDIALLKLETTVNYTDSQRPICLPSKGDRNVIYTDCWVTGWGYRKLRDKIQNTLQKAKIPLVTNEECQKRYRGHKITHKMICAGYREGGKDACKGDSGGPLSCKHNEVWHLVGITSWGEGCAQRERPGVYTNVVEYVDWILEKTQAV

[6] = biological target: Coagulation factor X (Homo sapiens) (UniProt P00742); assay: Inhibition of human factor 10a assessed as residual activity at 500 uM by spectrophotometric assay
Chain of Coagulation factor X (Homo sapiens) (P00742 41-179 limits assumed): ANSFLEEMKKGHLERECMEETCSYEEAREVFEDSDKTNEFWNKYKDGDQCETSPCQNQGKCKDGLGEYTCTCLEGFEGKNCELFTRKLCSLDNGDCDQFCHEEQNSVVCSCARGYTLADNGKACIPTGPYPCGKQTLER
Chain of Coagulation factor X (Homo sapiens) (P00742 235-488 limits assumed): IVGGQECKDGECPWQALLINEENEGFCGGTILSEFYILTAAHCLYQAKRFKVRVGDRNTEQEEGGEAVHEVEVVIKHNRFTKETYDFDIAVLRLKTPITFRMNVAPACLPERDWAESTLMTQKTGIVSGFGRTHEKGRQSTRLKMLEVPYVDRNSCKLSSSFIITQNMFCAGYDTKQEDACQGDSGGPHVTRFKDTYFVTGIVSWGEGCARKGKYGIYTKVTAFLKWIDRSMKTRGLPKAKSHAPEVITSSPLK

[7] = tested on: COc1cc2occ(C(=O)OC(C)(C)C)c2cc1OCc1nc2ccc(OS(=O)(=O)O)cc2s1; conditions: Homo sapiens; 400 uM
Description: Non-competitive inhibition of human thrombin using spectrozyme TH as substrate assessed as reduction in substrate Vmax at 400 uM by Michaelis-Menten kinetics

[8] = biological target: Prothrombin (Homo sapiens) (UniProt P00734); assay: Non-competitive inhibition of human thrombin using spectrozyme TH as substrate assessed as effect on substrate Km at 400 uM by Michaelis-Menten kinetics

Compound | Activity [1] | Activity [2] | Activity [3] | Activity [4] | Activity [5] | Activity [6] | inhibition [8] | Vmax [7]
CCOC(=O)c1c(C)[nH]c2ccc(OS(=O)(=O)O)cc12 | 98% | 90% | 90% | 100% | 114% | 120% |  | 
CCOC(=O)c1c(C)oc2cc(OC)c(OCc3oc4cc(OC)c(OCc5nc6ccc(OS(=O)(=O)O)cc6s5)cc4c3C(=O)OCC)cc12 | 82% | 100% | 100% | 104% | 62% | 98% |  | 
Prothrombin (Homo sapiens) (from UniProt P00734) |  |  |  |  |  |  |  | 24.5 mAU/min/µM
COc1cc2occ(C(=O)OC(C)(C)C)c2cc1OCc1nc2ccc(OS(=O)(=O)O)cc2s1 | 101% | 100% | 98% | 30% | 0% | 22% | Active | 
CCOC(=O)c1c(Cc2ccccc2)oc2cc(OC)c(OCc3nc4ccc(OS(=O)(=O)O)cc4s3)cc12 | 90% | 96% | 100% | 108% | 88% | 90% |  | 

Second part, led by results:

Activity [1] | Activity [2] | Activity [3] | Activity [4] | Activity [5] | Activity [6] | inhibition [8] | Compound | Vmax [7]
98% | 92% | 99% | 42% | 0% | 0% |  | CCOC(=O)c1c(C)[nH]c2ccc(OCc3c(C(=O)OCC)c4cc(OS(=O)(=O)O)ccc4n3C(=O)OC(C)(C)C)cc12 | 
98% | 100% | 109% | 29% | 0% | 37% |  | CCOC(=O)c1c(COc2cc3c(C(=O)OCC)c(Cc4ccccc4)oc3cc2OC)[nH]c2ccc(OS(=O)(=O)O)cc12 | 
110% | 97% | 102% | 48% | 120% | 105% |  | Cc1nc2ccc(OCc3nc4ccc(OS(=O)(=O)O)cc4s3)cc2s1 | 
94% | 95% | 91% | 99% | 52% | 77% |  | Cc1nc2ccc(OS(=O)(=O)O)cc2s1 | 
109% | 97% | 92% | 46% | 16% | 33% |  | CCOC(=O)c1c(COc2cc3c(C(=O)OCC)c(COc4cc5c(C(=O)OCC)c(C)oc5cc4OC)oc3cc2OC)[nH]c2ccc(OS(=O)(=O)O)cc12 | 
98% | 97% | 87% | 102% | 111% | 34% |  | CCOC(=O)c1c(COc2cc3c(C(=O)OCC)coc3cc2OC)[nH]c2ccc(OS(=O)(=O)O)cc12 | 
